Experimental data: patent US11407729B2, “Quinoline and quinazoline compounds and methods of use thereof” (Stingray Therapeutics, Inc., priority 2019, dated 2022)
pIC50: −log10 of the molar value. Counter-ions that a name gives are not always drawn.

Each molecule was assayed against T1, ENPP1 protein (Homo sapiens, UniProt P22413) (assay: ENPP1 Inhibition Assay). Details: substrate Thymidine 5′-monophosphate p-nitrophenol ester; 37° C. for 45 minutes; absorbance at 405 nm.
T1 sequence (P22413 1-925): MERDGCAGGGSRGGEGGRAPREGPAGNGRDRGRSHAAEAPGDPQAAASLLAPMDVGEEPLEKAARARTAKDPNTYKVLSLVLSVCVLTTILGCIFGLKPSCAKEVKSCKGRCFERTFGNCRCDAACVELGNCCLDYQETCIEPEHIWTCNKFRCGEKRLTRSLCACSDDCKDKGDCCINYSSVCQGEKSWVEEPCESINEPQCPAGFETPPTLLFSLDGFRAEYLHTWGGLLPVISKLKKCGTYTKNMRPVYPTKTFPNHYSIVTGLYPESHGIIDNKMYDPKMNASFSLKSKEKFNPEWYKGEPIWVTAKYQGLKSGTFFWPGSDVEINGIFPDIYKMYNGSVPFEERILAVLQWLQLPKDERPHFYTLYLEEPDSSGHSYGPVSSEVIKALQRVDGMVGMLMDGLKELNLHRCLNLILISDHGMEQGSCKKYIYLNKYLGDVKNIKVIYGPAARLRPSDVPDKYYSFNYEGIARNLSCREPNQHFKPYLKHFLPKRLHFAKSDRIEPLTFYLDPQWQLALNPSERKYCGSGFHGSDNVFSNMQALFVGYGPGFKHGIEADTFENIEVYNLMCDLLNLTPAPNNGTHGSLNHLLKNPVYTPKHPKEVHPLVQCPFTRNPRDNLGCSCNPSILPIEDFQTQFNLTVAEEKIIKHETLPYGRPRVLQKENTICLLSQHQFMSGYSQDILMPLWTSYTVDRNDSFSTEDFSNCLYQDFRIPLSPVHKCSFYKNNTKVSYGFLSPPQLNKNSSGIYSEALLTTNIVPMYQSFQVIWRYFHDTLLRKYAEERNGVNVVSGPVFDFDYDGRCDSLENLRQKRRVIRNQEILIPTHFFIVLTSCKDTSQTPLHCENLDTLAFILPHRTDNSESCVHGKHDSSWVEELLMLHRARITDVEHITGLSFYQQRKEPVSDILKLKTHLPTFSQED
Format: biochemical
Parameters: purchased R&D 6136-EN-010
Experimental: 1. ENPP1 Inhibition Assay
An eight point serial dilution of drugs was prepared in 10× in assay buffer with the final assay concentrations starting at 10 μM, 3 μM, 1 μM, 0.3 μM . . . 0 μM. A dilution of DMSO was included as a control. The assay plate was set up as follows with each well in duplicate: 81 μL assay buffer+10 μL ENPP1 inhibitor or DMSO+5 μL Substrate+4 μL Enzyme. Both the enzyme and substrate were added to opposite sides of the well to ensure that there was no interaction until all wells had both components. The plate was then centrifuged gently for 10 seconds, followed by an incubation at 37° C. for 45 minutes.
IC50 values are determined using GraphPad Prism 5 software. The data were entered as an X-Y plot into the software as percent inhibition for each concentration of the drug. The concentration values of the drug were log transformed and the nonlinear regression was carried out using the “sigmoidal dose-response (variable slope)” option within the GraphPad software to model the data and calculate IC50 values.

Going from `COc1cc2nccc(N3CCC(N(C4CC4)S(N)(=O)=O)CC3)c2cc1OC` [Compound I-24, N—(N-cyclopropyl-N-(1-(6,7-dimethoxyquinolin-4-yl)piperidin-4-yl)sulfuricdiamide formate salt] to `COc1cc2ncnc(N3CCC(N(C4CC4)S(N)(=O)=O)CC3)c2cc1OC` [Compound I-30], the pIC50 falls from 6.02 to 5.25 (0.77 log units).

Going from `CCC(CNS(N)(=O)=O)C1CCN(c2ncnc3cc(OC)c(OC)cc23)CC1` (centres unmarked) [Compound I-25, N—(N-(2-(1-(6,7-dimethoxyquinazolin-4-yl)piperidin-4-yl)butyl)sulfuricdiamide formate salt] to `COCOc1cc2c(N3CCC(C(C)CNS(N)(=O)=O)CC3)ncnc2cc1OC` (centres unmarked) [Compound I-28], the pIC50 falls from 8.30 to 7.58 (0.72 log units).

First: COc1cc2ncnc(N3CCC(C(C)(C)CNS(N)(=O)=O)CC3)c2cc1OC [Compound I-26, N-(2-(1-(6,7-dimethoxyquinazolin-4-yl)piperidin-4-yl)-2-methylpropyl)sulfuricdiamide formate salt]
Second: COCOc1cc2c(N3CCC(C(C)(C)CNS(N)(=O)=O)CC3)ncnc2cc1OC [Compound I-36, N-(2-(1-(7-methoxy-6-(methoxymethoxy)quinazolin-4-yl)piperidin-4-yl)-2-methylpropyl)sulfuricdiamide]
The pIC50 of the first is 1.34 log units higher: 8.62 for the first, 7.28 for the second.

First: COc1cc2ncnc(N3CCC(C4(CNS(N)(=O)=O)CC4)CC3)c2cc1OC [Compound I-27, N—(N-((1-(1-(6,7-dimethoxyquinazolin-4-yl)piperidin-4-yl)cyclopropyl)methyl)sulfuricdiamide formate salt]
Second: COCOc1cc2c(N3CCC(C4(CNS(N)(=O)=O)CC4)CC3)ncnc2cc1OC [Compound I-35, N-((1-(1-(7-methoxy-6-(methoxymethoxy)quinazolin-4-yl)piperidin-4-yl)cyclopropyl)methyl)sulfuricdiamide]
The pIC50 of the first is 0.63 log units higher: 7.94 for the first, 7.31 for the second.

First: COc1cc2ncnc(N3CCC(NS(N)(=O)=O)CC3)c2cc1OC [Compound I-29, N—(N-(1-(6,7-dimethoxyquinazolin-4-yl)piperidin-4-yl)sulfuricdiamide formate salt]
Second: COc1cc2ncnc(N3CCN(C4(CNS(N)(=O)=O)CC4)CC3)c2cc1OC [Compound I-32, N-((1-(4-(6,7-dimethoxyquinazolin-4-yl)piperazin-1-yl)cyclopropyl)methyl)sulfuricdiamide]
The pIC50 of the first is 0.87 log units lower: 6.38 for the first, 7.25 for the second.

Going from `COc1cc2nccc(N3CCN(C4(CNS(N)(=O)=O)CC4)CC3)c2cc1OC` [Compound I-31, N-((1-(4-(6,7-dimethoxyquinolin-4-yl)piperazin-1-yl)cyclopropyl)methyl)sulfuricdiamide] to `COCOc1cc2c(N3CCN(C4(CNS(N)(=O)=O)CC4)CC3)ncnc2cc1OC` [Compound I-33, N-((1-(4-(7-methoxy-6-(methoxymethoxy)quinazolin-4-yl)piperazin-1-yl)cyclopropyl)methyl)sulfuricdiamide], the pIC50 falls from 7.63 to 6.80 (0.83 log units). The first is the more potent here.

First: COc1cc2ncnc(N3CCN(C4(CNS(N)(=O)=O)CC4)CC3)c2cc1OCF [Compound I-34, N-((1-(4-(6-(fluoromethoxy)-7-methoxyquinazolin-4-yl)piperazin-1-yl)cyclopropyl)methyl)sulfuricdiamide]
Second: COc1cc2nccc(N3CCC(C4(CNS(N)(=O)=O)CC4)CC3)c2cc1OCF [Compound I-37, N-((1-(1-(6-(fluoromethoxy)-7-methoxyquinolin-4-yl)piperidin-4-yl)cyclopropyl)methyl)sulfuricdiamide]
The pIC50 of the first is 2.08 log units lower: 6.88 for the first, 8.96 for the second. The second is the more potent here.
